Results on 2 molecules are retold here after patent US20260356957A1, “METHODS FOR TREATMENT OF NON-SMALL CELL LUNG CANCER (NSCLC)” (Janssen Biotech, Inc., priority 2023, published 2026).

The subject of series [1] is EGFR-mutated locally advanced or metastatic NSCLC. Description: MARIPOSA Phase 3, progression-free survival after first subsequent therapy (PFS2). It is filed as in vivo, human. The text has this: The efficacy population included all patients who had undergone randomization. Tick marks indicate censoring of data. […]
Series [2] shares this test system. The series can be described thus: MARIPOSA Phase 3, overall survival. It is filed as in vivo, human.
Series [3] has the same test system. Description: MARIPOSA Phase 3, progression-free survival by BICR. The series is classed as in vivo, human. From the text: The primary endpoint of the study is PFS (using RECIST v1.1 guidelines) as assessed by blinded independent central review (BICR).
A short description of series [4]: MARIPOSA Phase 3, adverse events. The series is classed as in vivo, human. To be noted: in vivo. The text has this: • 1. […] Incidence and Severity of Adverse Events (AEs) [Time Frame: Up to approximately 60 months]. Incidence and severity of treatment emergent adverse events (TEAEs) will be reported. Any adverse event occurring at or after the initial administration of study treatment through the day of last dose plus 30 days, or until the start of subsequent anticancer therapy (if earlier), is considered to be treatment emergent. • 8. Number of Participants with Clinical Laboratory Abnormalities [Time Frame: Up to approximately 60 months]. Number of participants with clinical laboratory abnormalities (serum chemistry, hematology, blood coagulation, and urine samples) will be reported. • 9. Number of Participants with Vital Signs Abnormalities [Time Frame: Up to approximately 60 months]. Number of participants with vital signs abnormalities (temperature, heart rate, respiratory rate, oxygen saturation, blood pressure) will be reported. • 10. Number of Participants with Physical Examination Abnormalities [Time Frame: Up to approximately 60 months]. Number of participants with physical examination abnormalities will be reported. • 11. […] The NSCLC-SAQ contains 7 items that assess cough, pain, dyspnea, fatigue, and poor appetite over a 7-day recall period. Each multi-item scale and individual item will be summarized using count and percent by visit. • 15. […] EORTC-QLQ-C30 is a core 30-item questionnaire for evaluating the health-related quality of life (HRQOL) of participants participating in cancer clinical studies. • 16.

The test system of series [5] is EGFR-mutated locally advanced or metastatic NSCLC. The series can be described thus: MARIPOSA Phase 3, time to subsequent therapy (TTST) and subsequent therapy. It is filed as in vivo, human.
Series [6] shares this test system. The series can be described thus: MARIPOSA Phase 3, objective response by BICR (RECIST v1.1). To be noted: best overall response. The series is classed as in vivo, human.
In another series the test system is EGFR-mutated NSCLC. To be noted: all prespecified subgroups; cited from earlier work.
For series [7], the system named is EGFR-mutated NSCLC with brain metastasis. Description: MARIPOSA Phase 3, intracranial PFS by BICR in participants with history of brain metastasis. It is filed as in vivo, human. From the text:
• 1. […] Intracranial PFS [Time Frame: Up to approximately 42 months]. […] Incidence and Severity of Adverse Events (AEs) [Time Frame: Up to approximately 60 months]. Incidence and severity of treatment emergent adverse events (TEAEs) will be reported. Any adverse event occurring at or after the initial administration of study treatment through the day of last dose plus 30 days, or until the start of subsequent anticancer therapy (if earlier), is considered to be treatment emergent. • 8. Number of Participants with Clinical Laboratory Abnormalities [Time Frame: Up to approximately 60 months]. Number of participants with clinical laboratory abnormalities (serum chemistry, hematology, blood coagulation, and urine samples) will be reported. • 9. Number of Participants with Vital Signs Abnormalities [Time Frame: Up to approximately 60 months]. Number of participants with vital signs abnormalities (temperature, heart rate, respiratory rate, oxygen saturation, blood pressure) will be reported. • 10. Number of Participants with Physical Examination Abnormalities [Time Frame: Up to approximately 60 months]. Number of participants with physical examination abnormalities will be reported. • 11. […] Number of Participants with Anti-Amivantamab Antibodies [Time Frame: Up to approximately 42 months]. […] Change from Baseline in Non-Small Cell Lung Cancer-Symptom Assessment Questionnaire (NCSLC-SAQ) [Time Frame: Baseline Up to approximately 42 months]. The NSCLC-SAQ contains 7 items that assess cough, pain, dyspnea, fatigue, and poor appetite over a 7-day recall period. Each multi-item scale and individual item will be summarized using count and percent by visit. • 15. Change from Baseline in European Organization of Research and Treatment of Cancer Quality of Life Questionnaire Core 30 (EORTC-QLQ-C30) [Time Frame: Baseline Up to approximately 42 months]. EORTC-QLQ-C30 is a core 30-item questionnaire for evaluating the health-related quality of life (HRQOL) of participants participating in cancer clinical studies. • 16.

In series [8] the test system is EGFR-mutated locally advanced or metastatic NSCLC. Description: MARIPOSA Phase 3, time to symptomatic progression (TTSP). It is filed as in vivo, human.
Series [9] has the same test system. The series can be described thus: MARIPOSA Phase 3, duration of response by BICR. The series is classed as in vivo, human. The note with it: confirmed responders.

Regarding `C=CC(=O)Nc1cc(Nc2nccc(-n3cc(CN(C)C)c(-c4ccccc4)n3)n2)c(OC)cc1N1CCOCC1` [Lazertinib, N-(5-(4-(4-((dimethylamino)methyl)-3-phenyl-1H-pyrazol-1-yl)pyrimidin-2-ylamino)-4-methoxy-2-morpholinophenyl) acrylamide], in series [1] (Full Analysis Set), the “Event (PFS2)” value is 58 (26.9%) (%). In series [1] (NE = not estimable), the “PFS2 time to event, 75th percentile (95% CI)” value is “NE (28.94, NE)”. Moreover, in series [2] (Full Analysis Set), the “Censored (OS)” value is reported as 160 (74.1%) (%); the “Event (OS)” value is recorded as 56 (25.9%) (%); the “OS 12-month event-free rate (95% CI)” value is 0.86 (0.81, 0.90); the “OS 18-month event-free rate (95% CI)” value is listed as 0.78 (0.71, 0.83). In series [2] (Full Analysis Set), the “OS 24-month event-free rate (95% CI)” value is reported as 0.71 (0.61, 0.78) and the “OS 30-month event-free rate (95% CI)” value is listed as 0.68 (0.58, 0.75). Also, the “OS time to event, 75th percentile (95% CI)” value in series [2] (NE = not estimable) is “NE (NE, NE)”. The “Median overall survival (95% CI)” value in [2] (interim analysis, NE = not estimable) is reported as “NE (NE, NE)”. In series [3], the “PFS 6-month event-free rate (95% CI)” value is 0.85 (0.79, 0.89); the “PFS 18-month event-free rate (95% CI)” value is given as 0.52 (0.44, 0.58); the “PFS 24-month event-free rate (95% CI)” value was 0.35 (0.27, 0.42); the “PFS 30-month event-free rate (95% CI)” value was 0.30 (0.22, 0.39). For the same molecule, in series [3] (Full Analysis Set), the “Censored (PFS)” value is 95 (44.0%) (%) and the “PFS time to event, 75th percentile (95% CI)” value is “NE (24.05, NE)”. Further, the “Safety profile” value in [4] is “well defined and tolerable, and largely consistent with that seen with other 3rd generation EGFR TKI”. In addition, in series [5] (Full Analysis Set), the “TTST 6-month event-free rate (95% CI)” value is on record as 0.90 (0.85, 0.93); the “TTST 12-month event-free rate (95% CI)” value is on record as 0.71 (0.66, 0.78); the “TTST 18-month event-free rate (95% CI)” value is on record as 0.60 (0.53, 0.66); the “TTST 24-month event-free rate (95% CI)” value is on record as 0.50 (0.43, 0.58). Besides, the “TTST time to event, 75th percentile (95% CI)” value in series [5] (NE = not estimable) is listed as “NE (NE , NE)”. In [6], the “Complete Response (CR)” value was 9 (4.2%) (%), the “Not Evaluable (NE)” value is 5 (2.3%) (%) and the “Progressive Disease (PD)” value is 9 (4.2%) (%). The “PFS vs gefitinib” value in the series on EGFR-mutated NSCLC is given as “improved PFS compared to the first generation EGFR TKI gefitinib in all prespecified subgroups”. The “Event (intracranial PFS)” value in series [7] is on record as 37 (43.0%) (%). Further, the “Intracranial PFS time to event, 75th percentile (95% CI)” value in series [7] (NE = not estimable) is “NE (22.67, NE)”. Further, in series [8] (Full Analysis Set), the “Death without Symptomatic PD” value was 24 (11.1%) (%); the “Event (TTSP)” value was 70 (22.4%) (%); the “TTSP 6-month event-free rate (95% CI)” value is listed as 0.90 (0.85, 0.93); the “TTSP 12-month event-free rate (95% CI)” value was 0.79 (0.72, 0.84). Besides, in series [8] (Full Analysis Set), the “TTSP 18-month event-free rate (95% CI)” value is 0.71 (0.64, 0.76); the “TTSP 24-month event-free rate (95% CI)” value is listed as 0.65 (0.58, 0.72); the “TTSP 30-month event-free rate (95% CI)” value is recorded as 0.61 (0.52, 0.69); the “TTSP time to event, 25th percentile (95% CI)” value is recorded as 13.80 (10.41, 18.56) months. For the same molecule, in [8] (NE = not estimable), the “TTSP Median (95% CI)” value is “NE (NE, NE)” and the “TTSP time to event, 75th percentile (95% CI)” value was “NE (NE, NE)”. Besides, in series [9], the “Censored (DOR)” value is recorded as 77 (48.1%) (%) and the “Event (DOR)” value was 83 (51.9%) (%). For the same molecule, in [9] (NE = not estimable), the “DOR time to event, 75th percentile (95% CI)” value is given as “NE (NE, NE)”.

Take “Amivantamab: IgG1 anti-EGFR/c-Met bispecific antibody described in U.S. Pat. No. 9,593,164; SEQ ID NO: 1-20”: in [4], the “Safety profile” value was “well defined and tolerable, largely consistent with its on-target activity against the EGFR and MET pathways”.
